According to patent US20020137929A1, “1 - (3-heterocyclylphenyl) isothiourea, -isourea, -guanidine and -amidine herbicidal agents” (Intellectual Property Department, BASF Aktiengesellschaft, priority 1998, published 2002):

Assays:
[1] = test system: ZEAMX (Corn, Field); assay: Postemergence herbicidal evaluation; format: in vivo, Zea mays; conditions: postemergence
Summary of the method: (§1)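 Two-week-old seedlings sprayed with compound in 50/50 acetone/water plus 0.5% TWEEN 20, at about 0.0156 to 0.500 kg/ha, nozzle at 40 psi. Kept in greenhouse; rated visually 4-5 weeks after treatment on a 0-9 scale versus control, repeat tests averaged.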

[2] = test system: GLXMAW (Soybean, Williams); assay: Preemergence herbicidal evaluation; format: in vivo, Glycine max, (L.) Merr. cv Williams; conditions: rated 4-5 weeks after treatment
Summary of the method: (§2)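 In this greenhouse assay, monocot and dicot seeds are planted in soil and treated prior to emergence with an aqueous acetone spray (about 0.0156-0.500 kg/ha). Plants are assessed visually against control on a 0-9 scale after 4-5 weeks.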

[3] = test system: CHEAL (Lambsquarters, Common); assay: Postemergence herbicidal evaluation; format: in vivo, Chenopodium album; conditions: postemergence
Summary of the method: as §1

[4] = test system: ORYSAT (Rice, Tebonnet); assay: Postemergence herbicidal evaluation; format: in vivo, Oryza sativa, (L.) Tebonnet; conditions: postemergence
Summary of the method: as §1

[5] = test system: AMBEL (Ragweed, Common); assay: Preemergence herbicidal evaluation; format: in vivo, Ambrosia artemisifolia; conditions: rated 4-5 weeks after treatment
Summary of the method: as §2

[6] = test system: CASOB (Sicklepod); assay: Postemergence herbicidal evaluation; format: in vivo, Cassia obtusifolia; conditions: postemergence
Summary of the method: as §1

[7] = test system: SETVI (Foxtail, Green); assay: Preemergence herbicidal evaluation; format: in vivo, Setaria viridis; conditions: rated 4-5 weeks after treatment
Summary of the method: as §2

[8] = test system: ORYSAT (Rice, Tebonnet); assay: Preemergence herbicidal evaluation; format: in vivo, Oryza sativa, (L.) Tebonnet; conditions: rated 4-5 weeks after treatment
Summary of the method: as §2

[9] = test system: CYPSE (Flatsedge); assay: Postemergence weed control under flooded paddy conditions; format: in vivo, Cyperus serotinus; conditions: postemergence weeds, 3-4 weeks after treatment
Summary of the method: (§3)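 Containers holding 3–5 cm weeds and rice at 1.5–2.5 leaves are flooded to 1.5–3 cm above soil. Compound in 50/50 v/v aqueous/acetone is then added directly to the water, about 0.0313–0.500 kg/ha. Plants are kept in the greenhouse and rated 0–9 visually at 3–4 weeks.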

[10] = test system: CYPSE (Flatsedge); assay: Preemergence weed control under flooded paddy conditions; format: in vivo, Cyperus serotinus; conditions: rated 3-4 weeks after treatment
Summary of the method: (§4)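 Flooded-pot preemergence screen with silt loam and seeds in the upper 0.5 cm. Dose about 0.0313 to 0.500 kg/ha, delivered into flood water; visual 0-9 score after 3 to 4 weeks.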

[11] = test system: MOOVA (Monochoria); assay: as above; format: in vivo, Monochoria vaginalis; conditions: rated 3-4 weeks after treatment
Summary of the method: as §4

[12] = test system: SAGPY (Arrowhead (Pygmaea)); assay: Postemergence weed control under flooded paddy conditions; format: in vivo, Sagittaria pygmaea; conditions: postemergence weeds, 3-4 weeks after treatment
Summary of the method: as §3

[13] = test system: CYPIR (Rice Flatsedge); assay: as above; format: in vivo, Cyperus iria; conditions: postemergence weeds, 3-4 weeks after treatment
Summary of the method: as §3

[14] = test system: GALAP (Galium); assay: Postemergence herbicidal evaluation; format: in vivo, Galium aparine; conditions: postemergence
Summary of the method: as §1

## CN1C(=O)CSC1=Nc1cc(N2C(=O)C3=C(CCCC3)C2=O)c(F)cc1Cl [Compound 1, N-{4-chloro-2-fluoro-5-[(3-methyl-4-oxo-2-thiazolidinylidene)amino]phenyl}-1-cyclohexene-1,2-dicarboximide]
[1]; rate 0.0157 kg/ha
  ZEAMX herbicidal rating: 2.5
[1]; rate 0.0313 kg/ha
  ZEAMX herbicidal rating: 3.5
[1]; rate 0.0625 kg/ha
  ZEAMX herbicidal rating: 4.0
[1]; rate 0.1250 kg/ha
  ZEAMX herbicidal rating: 5.0
[1]; rate 0.2500 kg/ha
  ZEAMX herbicidal rating: 5.5
[1]; rate 0.5000 kg/ha
  ZEAMX herbicidal rating: 6.5
[2]; rate 0.0313 kg/ha
  GLXMAW preemergence herbicidal rating: 0.0
[2]; rate 0.0625 kg/ha
  GLXMAW preemergence herbicidal rating: 2.0
[2]; rate 0.1250 kg/ha
  GLXMAW preemergence herbicidal rating: 2.0
[2]; rate 0.2500 kg/ha
  GLXMAW preemergence herbicidal rating: 4.0
[2]; rate 0.5000 kg/ha
  GLXMAW preemergence herbicidal rating: 3.0
[3]; rate 0.0157 kg/ha
  CHEAL herbicidal rating: 6.0
[3]; rate 0.0313 kg/ha
  CHEAL herbicidal rating: 7.0
[3]; rate 0.0625 kg/ha
  CHEAL herbicidal rating: 7.0
[3]; rate 0.1250 kg/ha
  CHEAL herbicidal rating: 9.0
[3]; rate 0.2500 kg/ha
  CHEAL herbicidal rating: 9.0
[3]; rate 0.5000 kg/ha
  CHEAL herbicidal rating: 9.0
[4]; rate 0.0157 kg/ha
  ORYSAT herbicidal rating: 1.0
[4]; rate 0.0313 kg/ha
  ORYSAT herbicidal rating: 1.5
[4]; rate 0.0625 kg/ha
  ORYSAT herbicidal rating: 3.0
[4]; rate 0.1250 kg/ha
  ORYSAT herbicidal rating: 3.5
[4]; rate 0.2500 kg/ha
  ORYSAT herbicidal rating: 5.5
[4]; rate 0.5000 kg/ha
  ORYSAT herbicidal rating: 5.5
[5]; rate 0.0313 kg/ha
  AMBEL preemergence herbicidal rating: 0.0
[5]; rate 0.0625 kg/ha
  AMBEL preemergence herbicidal rating: 2.0
[5]; rate 0.1250 kg/ha
  AMBEL preemergence herbicidal rating: 5.0
[5]; rate 0.2500 kg/ha
  AMBEL preemergence herbicidal rating: 5.0
[5]; rate 0.5000 kg/ha
  AMBEL preemergence herbicidal rating: 6.7
[6]; rate 0.0157 kg/ha
  CASOB herbicidal rating: 0.0
[6]; rate 0.0313 kg/ha
  CASOB herbicidal rating: 2.0
[6]; rate 0.0625 kg/ha
  CASOB herbicidal rating: 4.0
[6]; rate 0.1250 kg/ha
  CASOB herbicidal rating: 4.0
[6]; rate 0.2500 kg/ha
  CASOB herbicidal rating: 6.0
[6]; rate 0.5000 kg/ha
  CASOB herbicidal rating: 7.0
[7]; rate 0.0313 kg/ha
  SETVI preemergence herbicidal rating: 5.0
[7]; rate 0.0625 kg/ha
  SETVI preemergence herbicidal rating: 9.0
[7]; rate 0.1250 kg/ha
  SETVI preemergence herbicidal rating: 8.0
[7]; rate 0.2500 kg/ha
  SETVI preemergence herbicidal rating: 9.0
[7]; rate 0.5000 kg/ha
  SETVI preemergence herbicidal rating: 8.0
[8]; rate 0.0313 kg/ha
  ORYSAT preemergence herbicidal rating: 0.0
[8]; rate 0.0625 kg/ha
  ORYSAT preemergence herbicidal rating: 0.0
[8]; rate 0.1250 kg/ha
  ORYSAT preemergence herbicidal rating: 2.0
[8]; rate 0.2500 kg/ha
  ORYSAT preemergence herbicidal rating: 3.0
[8]; rate 0.5000 kg/ha
  ORYSAT preemergence herbicidal rating: 6.0
[9]; rate 0.0313 kg/ha
  Herbicidal rating CYPSE: 0.0
[9]; rate 0.0625 kg/ha
  Herbicidal rating CYPSE: 0.0
[9]; rate 0.1250 kg/ha
  Herbicidal rating CYPSE: 0.0
[9]; rate 0.2500 kg/ha
  Herbicidal rating CYPSE: 1.0
[9]; rate 0.5000 kg/ha
  Herbicidal rating CYPSE: 4.0
[10]; 0.0313 kg/ha
  Herbicidal rating CYPSE: 0.0
[10]; 0.0625 kg/ha
  Herbicidal rating CYPSE: 0.0
[10]; 0.1250 kg/ha
  Herbicidal rating CYPSE: 0.0
[10]; 0.2500 kg/ha
  Herbicidal rating CYPSE: 2.0
[10]; 0.5000 kg/ha
  Herbicidal rating CYPSE: 8.0
[11]; 0.0313 kg/ha
  Herbicidal rating MOOVA: 8.0
[11]; 0.0625 kg/ha
  Herbicidal rating MOOVA: 9.0
[11]; 0.1250 kg/ha
  Herbicidal rating MOOVA: 9.0
[11]; 0.2500 kg/ha
  Herbicidal rating MOOVA: 9.0
[11]; 0.5000 kg/ha
  Herbicidal rating MOOVA: 9.0
[12]; rate 0.0313 kg/ha
  Herbicidal rating SAGPY: 0.0
[12]; rate 0.0625 kg/ha
  Herbicidal rating SAGPY: 0.0
[12]; rate 0.1250 kg/ha
  Herbicidal rating SAGPY: 0.0
[12]; rate 0.2500 kg/ha
  Herbicidal rating SAGPY: 0.0
[12]; rate 0.5000 kg/ha
  Herbicidal rating SAGPY: 0.0
[13]; rate 0.0313 kg/ha
  Herbicidal rating CYPIR: 1.0
[13]; rate 0.0625 kg/ha
  Herbicidal rating CYPIR: 3.5
[13]; rate 0.1250 kg/ha
  Herbicidal rating CYPIR: 5.5
[13]; rate 0.2500 kg/ha
  Herbicidal rating CYPIR: 6.5
[13]; rate 0.5000 kg/ha
  Herbicidal rating CYPIR: 8.5
[14]; rate 0.0157 kg/ha
  GALAP herbicidal rating: 4.0
[14]; rate 0.0313 kg/ha
  GALAP herbicidal rating: 6.0
[14]; rate 0.0625 kg/ha
  GALAP herbicidal rating: 6.0
[14]; rate 0.1250 kg/ha
  GALAP herbicidal rating: 8.0
[14]; rate 0.2500 kg/ha
  GALAP herbicidal rating: 9.0
[14]; rate 0.5000 kg/ha
  GALAP herbicidal rating: 9.0
